Assay results as given in publication PMC8232621, “Antimicrobial Activity of a Library of Thioxanthones and Their Potential as Efflux Pump Inhibitors” (Pharmaceuticals, 2021).
Read-outs that look alike come from different tables or passages of the source.

Key:
SE03 = experiment: Antibacterial activity, broth microdilution MIC; assay type: cell-based, Salmonella enterica serovar Typhimurium SL1344; conditions: Salmonella enterica, read-out: Minimum Inhibitory Concentration (MIC)
From the text: (§1) The referred library of thioxanthones was initially tested for their antimicrobial activity against six bacterial strains: the Gram-negative Escherichia coli ATCC 25922, Pseudomonas aeruginosa ATCC 27853 and Salmonella enterica serovar Typhimurium SL1344 (SE03), with the acrA gene deleted, and the Gram-positive Staphylococcus aureus ATCC 29213, Enterococcus faecalis ATCC 29212 and the methicillin and ofloxacin-resistant clinical isolate S. aureus 272123. For the synergy assay, two clinically relevant isolates were used: the extended-spectrum β-lactamase (ESBL)-producing E. coli SA/2 [23] and the vancomycin-resistant E. faecalis (VRE) B3/101 [23]. The antibiotics used were cefotaxime (CTX) and vancomycin (VAN), respectively.
(§2) The minimum inhibitory concentration (MIC) for each compound was determined by broth microdilution method in a 96-well plate according to the Clinical and Laboratory Standard Institute (CLSI) guidelines. The medium used was MHB II. The concentrations tested ranged from 100 µM to 0.195 µM and were prepared from a stock solution of 10 mM in DMSO, for S. aureus 272123 and SE03; for the other strains, the concentrations tested ranged from 64 µg/mL to 4 µg/mL and were prepared from a stock solution of 10 mg/mL in DMSO. DMSO was used in subinhibitory concentrations (1% v/v). The MIC was determined by visual inspection.

EZF + CV026 = experiment: Quorum sensing inhibition assay (pigment production), parallel inoculation; assay type: cell-based; conditions: disk with 8 µL of 10 mM solution, read-out: Quorum Sensing Inhibition (mm) ± SD
Procedure: (§3) Concerning the QS inhibition assay, the sensor strain Chromobacterium violaceum CV026 and the AHL producer strain Sphingomonas paucimobilis Ezf 10-17 (EZF) were inoculated as parallel lines, and the AHL producers Chromobacterium violaceum wild-type 85 (wt85) and Serratia marcescens AS-1 were inoculated as a single line. The interaction between the strains and compounds 2–18 was evaluated as the reduction of pigment production, in millimeters (mm) (Table 5) with promethazine (PMZ) as a positive control.
(§4) The QS inhibitory effect of the compounds was examined on the EZF and the sensor CV026 strains, on the wt85 strain, and on S. marcescens. The method used was the parallel inoculation method, where pair combinations of the used sensor strain CV026 and the N-acyl-homoserine lactone (AHL) producing strain EZF were inoculated directly onto the LB*-A agar surface in parallel, at an approximate distance of 5 mm from each other. S. marcescens AS-1 and wt85 were inoculated as a single line. Filter paper disks (7 mm in diameter) were placed on the center of the inoculated line(s) and impregnated with 8 µL of a solution of 10 mM of the compounds. […] The agar plates were incubated at room temperature (20 °C) for 24−48 h. The QS inhibition was accessed visually, through the inhibition of pigment production. The discolored, but intact, bacterial colonies were measured with a ruler.

wt85 = experiment: Quorum sensing inhibition assay (pigment production); assay type: cell-based, Chromobacterium violaceum wild-type 85; conditions: Chromobacterium violaceum, read-out: Quorum Sensing Inhibition (mm) ± SD
Procedure: as §3, §4

S. aureus ATCC 29213 [1] = experiment: Inhibition of biofilm formation (crystal violet); assay type: cell-based; conditions: Staphylococcus aureus, ATCC29213, 48 h
S. aureus 272123 [2] = experiment: Inhibition of biofilm formation (crystal violet); assay type: cell-based, Staphylococcus aureus; conditions: read-out: Biofilm Inhibition (%) ± SD
Procedure: Efflux mechanisms are one of the factors that can lead to biofilm-mediated resistance, along with slow growth and reduced penetration due to production of extracellular polysaccharides. […] Additionally, they can also modulate QS, through an influence in the transport of QS signal molecules. Thioxanthones 2–18 were tested for their potential for inhibiting biofilm formation by S. aureus ATCC 29213 and the multi-resistant S. aureus 272123. The biofilm inhibition, presented in percentage (%), was calculated based on the mean of absorbance units. Reserpine, which has previously been described as both an efflux pump inhibitor and an inhibitor of biofilm formation in Gram-positive bacteria was used as control in both strains.
The thioxanthone derivatives were tested for their ability to decrease the formation of biofilm. The bacterial strains used were the Gram-positive S. aureus […] and S. aureus 272123. The detection of the biofilm formation was carried out using the dye crystal violet (CV; 0.1% v/v). The initial inoculum was incubated in TSB overnight, and then diluted to an OD600 of 0.1. […] This meant that compound 12 was added at 50 µM, while the rest of the compounds were added at the concentration of 100 µM. The final volume in each well was 200 µL. Reserpine was used as a positive control, as it was the same compound used in the efflux pump inhibition assay and it has shown activity in the inhibition of biofilm formation in S. aureus strains. The plates were incubated at 30 °C for 48 h, with gentle stirring (100 rpm). After this incubation period, the TSB medium was discarded, and the plates were washed with tap water to remove unattached cells. Afterwards, 200 µL of a 0.1% v/v CV solution were added to the wells and incubated for 15 min at room temperature. Then, the CV solution was removed from the wells, and the plates were washed again with tap water, and 200 µL of a 70% ethanol solution was added to the wells. The biofilm formation was determined by measuring the OD600 using a Multiscan EX ELISA plate reader (Thermo Labsystems, Cheshire, WA, USA). The anti-biofilm effect of the compounds was expressed in the percentage (%) of decrease of biofilm formation.

S. marcescens = experiment: Quorum sensing inhibition assay (pigment production); assay type: cell-based, Serratia marcescens AS-1; conditions: Serratia marcescens, read-out: Quorum Sensing Inhibition (mm) ± SD
Procedure: as §3, §4

E. faecalis ATCC 29212 = experiment: Antibacterial activity, broth microdilution MIC; assay type: cell-based; conditions: Enterococcus faecalis
From the text: as §1, §2

S. aureus 272123 [3] = experiment: Antibacterial activity, broth microdilution MIC; assay type: cell-based; conditions: Staphylococcus aureus, 272123, read-out: Minimum Inhibitory Concentration (MIC)
From the text: as §1, §2

S. aureus ATCC 29213 [4] = experiment: Antibacterial activity, broth microdilution MIC; assay type: cell-based; conditions: Staphylococcus aureus
From the text: as §1, §2

[5] = S. aureus ATCC 29213, compounds 100 µM (compound 12 at 50 µM), read-out: Biofilm Inhibition (%) ± SD
[6] = Staphylococcus aureus, S. aureus 272123, compounds 100 µM (compound 12 at 50 µM), 48 h
[7] = ATCC29212, read-out: Minimum Inhibitory Concentration (MIC)
[8] = ATCC29212, E. faecalis ATCC 29212, read-out: Minimum Inhibitory Concentration (MIC)
[9] = ATCC29213, read-out: Minimum Inhibitory Concentration (MIC)
[10] = ATCC29213, S. aureus ATCC 29213, read-out: Minimum Inhibitory Concentration (MIC)

Row | Structure (SMILES) | MIC (SE03) [µM] | zone of inhibition at 10000 µM (EZF + CV026) [mm] | zone of inhibition at 10000 µM (wt85) [mm] | inhibition at 100 µM (S. aureus ATCC 29213 [1]; [5]) [%] | inhibition at 100 µM (S. aureus 272123 [2]; [6]) [%] | zone of inhibition at 10000 µM (S. marcescens) [mm] | MIC (E. faecalis ATCC 29212; [7]) [µM] | MIC (E. faecalis ATCC 29212; [8]) | MIC (S. aureus 272123 [3]) [µM] | MIC (S. aureus ATCC 29213 [4]; [9]) [µM] | MIC (S. aureus ATCC 29213 [4]; [10]) | inhibition at 100 µM (S. aureus ATCC 29213 [1]; read-out: Biofilm Inhibition (%) ± SD, S. aureus ATCC 29213, compounds 100 µM (compound 12 at 50 µM)) [%] | inhibition at 100 µM (S. aureus 272123 [2]; Staphylococcus aureus, 272123, 48 h) [%]
1 | CCCOc1ccc(NCCN(CC)CC)c2c(=O)c3ccccc3sc12 [Compound 2] | > 100 | 0 | 0 | 0.53 ± 1.05 | 81.1 ± 1.18 | 0 | 83 | 32 µg/mL | > 100 | 83 | 32 µg/mL |  | 
2 | CCCOc1ccc(N2CCCCC2)c2c(=O)c3ccccc3sc12 [Compound 3] | > 100 | 31 ± 0.8 | 0 |  |  | 0 |  | > 100 µM | > 100 |  | > 100 µM | > 90 | 93.49 ± 0.33
3 | CCCOc1ccc(Nc2nc(C)cc(C)n2)c2c(=O)c3ccccc3sc12 [Compound 8, 1-[(4,6-Dimethylpyrimidin-2-yl)amino]-4-propoxy-9H-thioxanthen-9-one] | > 100 | 32 ± 0.1 | 0 | 0 | 0 | 0 |  | > 100 µM | > 100 |  | > 100 µM |  | 
4 | CCCOc1ccc(N2CCNC(=O)C2)c2c(=O)c3ccccc3sc12 [Compound 9, 4-(9-Oxo-4-propoxy-9H-thioxanthen-1-yl)piperazin-2-one] | > 100 | 0 | 0 | 5.18 ± 1.02 | 31.5 ± 8.99 | 0 |  | > 100 µM | > 100 |  | > 100 µM |  | 
5 | CCCOc1ccc(NCCO)c2c(=O)c3ccccc3sc12 [Compound 10, 1-[(2-Hydroxyethyl)amino]-4-propoxy-9H-thioxanthen-9-one] | > 100 | 0 | 0 | 0 | 55.2 ± 4.2 | 0 |  | > 100 µM | > 100 |  | > 100 µM |  | 
6 | CCCOc1ccc(NCCN2CCOCC2)c2c(=O)c3ccccc3sc12 [Compound 11, 1-[(2-Morpholinoethyl)amino]-4-propoxy-9H-thioxanthen-9-one] | > 100 | 0 | 0 | 0 | 20.2 ± 4 | 31 ± 0.8 |  | > 100 µM | > 100 |  | > 100 µM |  | 
7 | CCCOc1ccc(NS(=O)(=O)c2ccc(C(=O)O)cc2)c2c(=O)c3ccccc3sc12 [Compound 12, 4-[N-(9-Oxo-4-propoxy-9H-thioxanthen-1-yl)sulfamoyl]benzoic acid] | 50 | 0 | 0 | ~53 |  | 0 | 34 | 16 µg/mL | > 100 | 34 | 16 µg/mL |  | 
8 | CCCOc1ccc(NS(=O)(=O)c2ccc(N)cc2)c2c(=O)c3ccccc3sc12 [Compound 13, 4-Amino-N-(9-oxo-4-propoxy-9H-thioxanthen-1-yl)benzenesulfonamide] | > 100 | 51 ± 0.1 | 0 | 0.42 ± 1.36 | 72 ± 6.66 | 0 |  | > 100 µM | > 100 |  | > 100 µM |  | 
9 | CCCOc1ccc(Br)c2c(=O)c3ccccc3sc12 [Compound 14, 1-Bromo-4-propoxy-9H-thioxanthen-9-one] | > 100 | 0 | 0 | 0 | 2.46 ± 0.72 | 0 |  | > 100 µM | > 100 |  | > 100 µM |  | 
10 | CCCOc1ccc2ncnc3c2c1Sc1ccccc1-3 [Compound 15] | > 100 | 50 ± 0.1 | 0 | 0 | 76 ± 2.06 | 32 ± 0.5 |  | > 100 µM | > 100 |  | > 100 µM |  | 
11 | CCCOc1ccc2nc(N)nc3c2c1Sc1ccccc1-3 [Compound 16] | > 100 | 29 ± 0.8 | 0 | 0 | 73.6 ± 1.8 | 0 |  | > 100 µM | > 100 |  | > 100 µM |  | 
12 | CCCOc1ccc2nc(NCc3ccccc3Cl)nc3c2c1Sc1ccccc1-3 [Compound 17] | > 100 | 49 ± 0.5 | 0 | 0 | 6.32 ± 4.32 | 0 |  | > 100 µM | > 100 |  | > 100 µM |  | 
13 | CCCOc1ccc2c3c(n/c(=N\c4ccccc4C)n2-c2ccccc2C)-c2ccccc2Sc13 [Compound 18] | > 100 | 0 | 0 | 19.7 ± 7.46 | 1.62 ± 2.43 | 0 |  | > 100 µM | > 100 |  | > 100 µM |  | 
